As a reminder, the IC50 is the midpoint of a concentration-inhibition curve. A high value points to lower potency. In general, melting point refers to the temperature of the solid-liquid transition.

Data set [1] deals with PKCθ (Homo sapiens, UniProt Q04759). Put plainly: PKCθ Scintiplate Assay. The data set is classed as biochemical. The settings on record: average value when one or more samples were tested. As to the method: This assay detects the phosphorylation of a biotinylated substrate by kinase utilizing radiolabeled ATP (ATP γ P33). The enzyme is either recombinant full length PKCθ (Panvera, P2996) or the purified recombinant active kinase domain of full length PKCθ (amino acids 362-706). The substrate in this assay is a biotinylated peptide with a sequence of biotin-[…]-CONH2. The assay buffer is composed of 100 mM Hepes, pH7.5, 2 mM MgCl2, 20 mM β-glycerophosphate and 0.008% TritonX 100. A reaction mixture of ATP, ATP γ P33 (PerkinElmer), DTT, lipid activator, and the enzyme is prepared in the assay buffer and added to a 96 well polypropylene plate. The compound (diluted in DMSO in a separate 96-well polypropylene plate) is added to the reaction mixture and incubated at room temperature. Following the incubation, the peptide substrate is added to the reaction mixture to initiate the enzymatic reaction. The reaction is terminated with the addition of a stop solution (10 mM EDTA, 0.2% TritonX100, and 100 mM NaHPO4) and transferred from the assay plate to a washed streptavidin-coated 96 well scintiplate (PerkinElmer). The scintiplate is incubated at room temperature, washed in PBS with 0.1% TritonX 100, and counted in the 1450 Microbeta Trilux (Wallac, Version 2.60). Counts are recorded for each well as corrected counts per minute (CCPM). The counts are considered corrected because they are adjusted according to a P33 normalization protocol, which corrects for efficiency and background differences between the instrument detectors (software version 4.40.01).

Data set [2] addresses T1, human PKCθ full length enzyme (Homo sapiens, UniProt Q04759).
T1 construct: human PKCθ full length enzyme (Panvera Catalog No. P2996); purchased Panvera P2996
Put plainly: PKCθ IMAP Assay. The note with it: average value when one or more samples were tested; ATP 6 uM, PKCθ 1 nM. The data set is classed as biochemical. Put shortly: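 Full-length human PKCθ (1 nM final) with 6 uM ATP and 100 nM 5FAM-labelled peptide, 5% DMSO, 3.0 mM DTT in reaction buffer. 25 min at room temperature; IMAP bead binding 20 min, fluorescence polarization read. Compounds 2:1 serially diluted; no-ATP and no-enzyme wells as controls.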

Sequence of PKCθ (Q04759 362-706 limits assumed): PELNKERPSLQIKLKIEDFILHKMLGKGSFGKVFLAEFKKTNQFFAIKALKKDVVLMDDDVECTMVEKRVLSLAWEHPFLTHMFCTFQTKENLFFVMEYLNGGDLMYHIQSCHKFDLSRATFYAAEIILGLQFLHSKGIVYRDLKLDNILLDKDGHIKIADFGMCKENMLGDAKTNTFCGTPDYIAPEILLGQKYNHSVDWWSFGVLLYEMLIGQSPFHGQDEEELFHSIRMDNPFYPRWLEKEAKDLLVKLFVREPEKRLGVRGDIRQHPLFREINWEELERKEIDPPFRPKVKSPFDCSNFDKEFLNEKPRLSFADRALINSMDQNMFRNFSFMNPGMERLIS
T1 sequence (Q04759 whole entry): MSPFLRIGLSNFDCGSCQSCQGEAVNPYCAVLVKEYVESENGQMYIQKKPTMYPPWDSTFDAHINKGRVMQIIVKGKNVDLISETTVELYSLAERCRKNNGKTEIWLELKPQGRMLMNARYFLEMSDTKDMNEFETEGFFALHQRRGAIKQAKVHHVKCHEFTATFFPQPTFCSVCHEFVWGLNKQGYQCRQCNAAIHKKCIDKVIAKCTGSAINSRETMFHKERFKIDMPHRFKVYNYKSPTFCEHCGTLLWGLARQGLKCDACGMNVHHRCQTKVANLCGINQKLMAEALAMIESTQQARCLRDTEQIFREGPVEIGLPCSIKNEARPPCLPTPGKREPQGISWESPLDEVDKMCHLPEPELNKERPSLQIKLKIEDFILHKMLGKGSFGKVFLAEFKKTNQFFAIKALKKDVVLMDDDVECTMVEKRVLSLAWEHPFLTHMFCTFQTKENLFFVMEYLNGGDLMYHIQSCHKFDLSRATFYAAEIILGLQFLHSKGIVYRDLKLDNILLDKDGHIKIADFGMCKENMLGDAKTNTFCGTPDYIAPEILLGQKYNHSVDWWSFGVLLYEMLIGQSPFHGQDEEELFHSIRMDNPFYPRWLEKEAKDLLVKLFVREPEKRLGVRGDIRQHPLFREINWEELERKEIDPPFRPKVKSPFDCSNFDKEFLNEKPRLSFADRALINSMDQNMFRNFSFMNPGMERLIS

On to `CN1CCN(Cc2ccc(-c3cc4c(Nc5ccc6[nH]ccc6c5)c(C#N)cnc4s3)cc2)CC1` [Compound 104, 4-(1H-indol-5-ylamino)-2-{4-[(4-methylpiperazin-1-yl)methyl]phenyl}thieno[2,3-b]pyridine-5-carbonitrile], for which the IC50 in data set [1] worked out at 0.28 µM.
In turn, `CN(C)Cc1ccc(-c2cc3c(Nc4ccc5[nH]ccc5c4)c(C#N)cnc3s2)cc1` [Compound 105, 2-{4-[(dimethylamino)methyl]phenyl}-4-(1H-indol-5-ylamino)thieno[2,3-b]pyridine-5-carbonitrile] showed an IC50 in data set [1] of 0.077 µM.
In turn, `N#Cc1cnc2sc(-c3ccccc3)cc2c1Nc1ccc2[nH]cnc2c1` [Compound 119, 4-(1H-benzimidazol-5-ylamino)-2-phenylthieno[2,3-b]pyridine-5-carbonitrile] yielded an IC50 in data set [1] of 9.1 µM. This IC50 is about 120-fold higher than that of the molecule before.
As to `Cc1cc(Nc2c(C#N)cnc3sc(-c4ccccc4)cc23)cc2cc[nH]c12` [Compound 120, 4-[(7-methyl-1H-indol-5-yl)amino]-2-phenylthieno[2,3-b]pyridine-5-carbonitrile], the 50% inhibitory concentration (IC50) in data set [1] was found to be 120 µM.
As to `N#Cc1cnc2sc(-c3ccccc3)cc2c1NCc1cccc2[nH]ccc12` [Compound 125, 4-(1H-indol-4-ylmethylamino)-2-phenylthieno[2,3-b]pyridine-5-carbonitrile], the IC50 in data set [1] was > 30 µM.
In data set [1], `CN1CCN(Cc2ccc(-c3cc4c(NCCc5c[nH]cn5)c(C#N)cnc4s3)cc2)CC1` [Compound 128, 4-{[2-(1H-imidazol-4-yl)ethyl]amino}-2-{4-[(4-methylpiperazin-1-yl)methyl]phenyl}thieno[2,3-b]pyridine-5-carbonitrile] showed an IC50 of 7.3 µM.
As to `Cn1ccc2cc(Nc3c(C#N)cnc4sc(-c5ccccc5)cc34)ccc21` [Compound 134, 4-[(1-methyl-1H-indol-5-yl)amino]-2-phenylthieno[2,3-b]pyridine-5-carbonitrile], the 50% inhibitory concentration (IC50) in data set [1] was > 200 µM.
The same measure, in the same setting: next, `N#Cc1cnc2sc(-c3ccc(CN4CCOCC4)cc3)cc2c1Nc1cccc2[nH]ccc12` [Compound 138, 4-(1H-indol-4-ylamino)-2-[4-(morpholin-4-ylmethyl)phenyl]thieno[2,3-b]pyridine-5-carbonitrile]: 0.19 µM; `CN1CCN(Cc2cccc(-c3cc4c(Nc5ccc6[nH]ccc6c5)c(C#N)cnc4s3)c2)CC1` [Compound 145, 4-(1H-indol-5-ylamino)-2-{3-[(4-methylpiperazin-1-yl)methyl]phenyl}thieno[2,3-b]pyridine-5-carbonitrile]: 0.09 µM; `N#Cc1cnc2sc(-c3cccc(CN4CCN(CCc5ccccc5)CC4)c3)cc2c1Nc1ccc2[nH]ccc2c1` [Compound 152, 4-(1H-indol-5-ylamino)-2-(3-{[4-(2-phenylethyl)piperazin-1-yl]methyl}phenyl)thieno[2,3-b]pyridine-5-carbonitrile]: 0.31 µM.
In the case of `N#Cc1cnc2sc(-c3ccc(N4CCOCC4)cc3)cc2c1Nc1ccc2[nH]ccc2c1` [Compound 189, 4-(1H-indol-5-ylamino)-2-(4-morpholin-4-ylphenyl)thieno[2,3-b]pyridine-5-carbonitrile], in data set [1], 2.1 µM corresponded to half-maximal inhibition (IC50). This IC50 lies about 6.8-fold higher than the previous one.
On the same count and under the same terms, next, `CCN1CCN(CC/C=C/c2cc3c(Nc4ccc5[nH]ccc5c4)c(C#N)cnc3s2)CC1` [Compound 190, 2-[(1E)-4-(4-ethylpiperazin-1-yl)but-1-en-1-yl]-4-(1H-indol-5-ylamino)thieno[2,3-b]pyridine-5-carbonitrile]: 0.19 µM; `CN(C)CCc1ccc(-c2cc3c(Nc4ccc5[nH]ccc5c4)c(C#N)cnc3s2)cc1` [Compound 192, 2-{4-[2-(dimethylamino)ethyl]phenyl}-4-(1H-indol-5-ylamino)thieno[2,3-b] pyridine-5-carbonitrile]: 0.045 µM.
Still for that read-out and setting: next, `Cn1cncc1-c1cc2c(Nc3ccc4[nH]ccc4c3)c(C#N)cnc2s1` [Compound 205, 4-(1H-indol-5-ylamino)-2-(1-methyl-1H-imidazol-5-yl)thieno[2,3-b]pyridine-5-carbonitrile]: 0.18 µM; `CN1CCN(Cc2ncc(-c3cc4c(Nc5ccc6[nH]ccc6c5)c(C#N)cnc4s3)n2C)CC1` [Compound 210]: 0.58 µM.
With `Cc1c(Nc2c(C#N)cnc3sc(C#Cc4ccc(CN(C)C)s4)cc23)ccc2[nH]ccc12` [Compound 448, 2-({5-[(dimethylamino)methyl]-2-thienyl}ethynyl)-4-[(4-methyl-1H-indol-5-yl)amino]thieno[2,3-b]pyridine-5-carbonitrile], the melting point was in the range of 185 to 187 °C. The molecule also returned an IC50 in data set [2] of 0.083 µM.
Molecule `Cc1c(Nc2c(C#N)cnc3sc(C#Cc4ccc(CN(C)C)o4)cc23)ccc2[nH]ccc12` [Compound 449, 2-({5-[(dimethylamino)methyl]-2-furyl}ethynyl)-4-[(4-methyl-1H-indol-5-yl)amino]thieno[2,3-b]pyridine-5-carbonitrile] showed a melting point of 218 to 220 °C. Moreover, in data set [2], half-maximal inhibition (IC50) was put at 0.025 µM.
With `Cc1c(Nc2c(C#N)cnc3sc(C#Cc4cncc(C(=O)N(C)C)c4)cc23)ccc2[nH]ccc12` [Compound 451, 5-({5-cyano-4-[(4-methyl-1H-indol-5-yl)amino]thieno[2,3-b]pyridin-2-yl}ethynyl)-N,N-dimethylnicotinamide], the melting point was > 260 °C. The IC50 in data set [2] was found to be 0.024 µM.
For the molecule `Cc1c(Nc2c(C#N)cnc3sc(C#Cc4cncc(CN(C)C)c4)cc23)ccc2[nH]ccc12` [Compound 452, 2-({5-[(dimethylamino)methyl]pyridin-3-yl}ethynyl)-4-[(4-methyl-1H-indol-5-yl)amino]thieno[2,3-b]pyridine-5-carbonitrile], the melting point is 130 °C (dec.). In addition, in data set [2], the half-maximal inhibitory concentration (IC50) stood at 0.018 µM.
With `Cc1c(Nc2c(C#N)cnc3sc(C#Cc4ccc(CN(C)C)nc4)cc23)ccc2[nH]ccc12` [Compound 453, 2-({6-[(dimethylamino)methyl]pyridin-3-yl}ethynyl)-4-[(4-methyl-1H-indol-5-yl)amino]thieno[2,3-b]pyridine-5-carbonitrile], the melting point was 230 to 232 °C. Also, in data set [2], the half-maximal inhibitory concentration (IC50) was 0.06 µM.
The molecule `Cc1c(Nc2c(C#N)cnc3sc(C4=CCN(S(C)(=O)=O)CC4)cc23)ccc2[nH]ccc12` [Compound 475, 4-[(4-methyl-1H-indol-5-yl)amino]-2-[1-(methylsulfonyl)-1,2,3,6-tetrahydropyridin-4-yl]thieno[2,3-b]pyridine-5-carbonitrile] displayed a melting point of 228 °C. In data set [2], this molecule returned a half-maximal inhibitory concentration (IC50) of 0.031 µM.
The molecule `Cc1c(Nc2c(C#N)cnc3sc(C4=CCN(C)CC4)cc23)ccc2[nH]ccc12` [Compound 477, 4-[(4-Methyl-1H-indol-5-yl)amino]-2-(1-methyl-1,2,3,6-tetrahydropyridin-4-yl)thieno[2,3-b]pyridine-5-carbonitrile] returned a melting point of 230 °C. In addition, half-maximal inhibition in data set [2] (IC50) required 0.041 µM.
`Cc1c(Nc2c(C#N)cnc3sccc23)ccc2[nH]ccc12` [Compound 480, 4-[(4-methyl-1H-indol-5-yl)amino]thieno[2,3-b]pyridine-5-carbonitrile]: the melting point is 255 °C. This molecule also showed an IC50 in data set [2] of 0.067 µM.
`Cc1c(Nc2c(C#N)cnc3scc(C)c23)ccc2[nH]ccc12` [Compound 481, 3-Methyl-4-[(4-methyl-1H-indol-5-yl)amino]thieno[2,3-b]pyridine-5-carbonitrile] registered a melting point of 261 °C. The molecule also registered an IC50 in data set [2] of 0.046 µM.
In the case of `Cc1c(Nc2c(C#N)cnc3sc(-c4ccc(OCCN(C)C)cc4)cc23)ccc2[nH]ccc12` [Compound 494, 2-{4-[2-(dimethylamino)ethoxy]phenyl}-4-[(4-methyl-1H-indol-5-yl)amino]thieno[2,3-b]pyridine-5-carbonitrile], the melting point lay in the range of 182 to 184 °C. In data set [2], this molecule gave an IC50 of 0.023 µM.
With `N#Cc1cnc2sc(Cl)cc2c1Nc1ccc2[nH]ccc2c1` [Compound 495, 2-chloro-4-(1H-indol-5-ylamino)thieno[2,3-b]pyridine-5-carbonitrile], the melting point turned out to be 228 °C. The molecule also came in with an IC50 in data set [2] of 0.395 µM.
In the case of `Cc1c(Nc2c(C#N)cnc3scc(CO)c23)ccc2[nH]ccc12` [Compound 496, 3-(Hydroxymethyl)-4-[(4-methyl-1H-indol-5-yl)amino]thieno[2,3-b]pyridine-5-carbonitrile], the melting point worked out at 230 °C. In addition, in data set [2], the 50% inhibitory concentration (IC50) stood at 0.063 µM.
In the case of `N#Cc1c[n+]([O-])c2sc(-c3ccccc3)cc2c1Nc1ccc2[nH]ccc2c1` [Compound 500, 4-(1H-indol-5-ylamino)-2-phenylthieno[2,3-b]pyridine-5-carbonitrile 7-oxide], the melting point was > 245 °C. In data set [2], this molecule yielded an IC50 of 16.8 µM.

Values taken from US20070082880A1 (priority 2005, published 2007).
